Test results reported in article PMC12040169 (PLOS Biology, 2025).

Test: in vitro
Settings: human, hela cells, % viability

Point of comparison: Cc1cc(CN2CCCN(S(=O)(=O)c3ccc(C(F)(F)F)cc3Cl)CC2)cc(C)c1O [CBK063102], viability at 28.5 h, 10 µM 91.2%. Against it:
- CN1CCN(C(=O)C[C@@H]2CCNC[C@@H]2Cc2cc(CC3CCCCC3)on2)CC1 [CBK289151] — lower, 84.3%
- O=c1cc(-c2ccc(Br)cc2)nc2[nH]ccn12 [CBK016446] — lower, 81%
- O=C(Cc1ccccc1F)NCc1nnc(-c2cccs2)o1 [CBK284632] — lower, 82%
- COc1ccc2c(c1)C1(CC(=O)N(CCc3scnc3C)C1=O)C(=O)N2Cc1ccccc1 (stereo not drawn) [CBK075240] — higher, 95.7%
- CN1CCc2c(sc3ncn4nc(-c5ccncc5)nc4c23)C1 [CBK288540] — higher, 96.2%
- O=[N+]([O-])c1ccccc1CN1CCC(N2CCCCC2)CC1 [CBK261852] — lower, 88.7%
- O=C(O)c1cccc(NC(=O)C2CCCCC2C(=O)O)c1 (stereo not drawn) [CBK261538] — higher, 96.6%
- COc1ccc(C(NC(=O)C2CCN(CCOc3ccc(Br)cc3)CC2)c2ccco2)cc1 (stereo not drawn) [CBK148311] — higher, 95.8%
- CC(=O)Nc1ccc(/C(C)=N/Nc2nc(N3CCCC3)nc(N3CCCC3)n2)cc1 [CBK021877] — lower, 89.3%
- O=C(O)CCCNC(=O)COc1ccccc1OCC(=O)NCCCC(=O)O [CBK296089] — lower, 90%
- Cc1ccccc1NC(=O)Cn1cnc2c(cnn2-c2ccccc2)c1=O [CBK287530] — higher, 104%
- Cc1ccc2cccc(OS(=O)(=O)c3ccc(Cl)c(C)c3Cl)c2n1 [CBK263984] — lower, 53.7%
- CS(=O)(=O)N1CCCc2cc(-c3csc(N4CCCC4)n3)ccc21 [CBK306093] — higher, 114%
- CC(=O)NC(CC(=O)N1CCc2sccc2C1c1ccccc1)c1ccc(F)cc1 (stereo not drawn) [CBK285548] — higher, 112%
- C(=C\c1ccccc1)/CN1CCN(c2ncccn2)CC1 [CBK261909] — higher, 92.3%
- CCCCCC(=O)Nc1ccc(C(=O)CSc2nnc(-c3ccco3)o2)cc1 [CBK295134] — lower, 84%
- CCN(CC)c1c(C)nc2ccc(C(=O)NCc3ccc(N(C)C)cc3)cn12 [CBK145961] — higher, 92.7%
- COc1ccc(C)cc1S(=O)(=O)N(C)CC(=O)Nc1cccc(Cl)c1 [CBK269493] — lower, 88.5%
- CCc1ccc2[nH]c(=O)c(CN(CCN(C)C)C(=S)NCc3ccccc3)cc2c1 [CBK134905] — higher, 98.4%
- O=C(NC1CCCN(c2cc(-c3ccncc3)n[nH]2)C1)c1ccsc1 (stereo not drawn) [CBK288619] — higher, 104%
- CN1CCC(Cc2nc(CC3CCCOC3)n(CC(F)(F)F)n2)CC1 (stereo not drawn) [CBK306801] — lower, 83.2%
- COc1ccc(C(=O)Nc2cccnc2N2CCNCC2)cc1 [CBK029421T] — higher, 102%
- COc1cc(F)cc(OC2CCNCC2)c1NC(=O)c1c(-c2ccccc2)noc1C [CBK050350T] — higher, 91.8%
- C[C@@H]1c2c(C(=O)OC(C)(C)C)ncn2-c2ccc(F)cc2N1CC(=O)N1CCCC1 [CBK016704] — lower, 85.3%
- Cc1nn(-c2ccccc2)c2sncc12 [CBK006869] — higher, 109%
- CCn1c2ccccc2c2cc(NC(=O)C(C)Sc3n[nH]c(=O)n3C3CC3)ccc21 (stereo not drawn) [CBK296636] — higher, 107%
- COc1ccc(C[C@@]23CC[C@@H](NC(=S)NCc4ccccc4)C[C@@H]2N(C)CC3)cc1 [CBK004262] — lower, 88.4%
- O=C(c1ccncc1)N1CCCC1(CO)Cc1ccccc1 (stereo not drawn) [CBK288620] — higher, 96.5%
- CC(=O)Nc1cc(NC(=O)CCCC(=O)O)ccc1Cl [CBK263949] — lower, 73.3%
- CN(C)c1cccc(NC(=O)Nc2ncc(Br)c3cccnc23)c1 [CBK107633] — higher, 94%
- O=S(=O)(Nc1cccc(C(F)(F)F)c1)c1cc2c(N3CCNCC3)nccc2s1 [CBK039085C] — higher, 103%
- CC(=O)N1CCc2sccc2C1c1ccc(NCc2ccc(F)c(F)c2)cc1 (stereo not drawn) [CBK286452] — higher, 101%
- CC(C)Nc1ccc(S(=O)(=O)N(Cc2ccccc2)Cc2ccccc2)cn1 [CBK267307] — lower, 84.6%
- c1ncc(OC2CCN(CCN3CCOCC3)C2)nc1OCCN1CCOCC1 (stereo not drawn) [CBK084492] — higher, 97.6%
- CCOC(=O)c1cnc2c(C(F)(F)F)cccc2c1NCCCN1CCOCC1 [CBK266012] — higher, 92.4%
- CCc1nc2ccc(C(=O)N3CCCCC3)cn2c1N(C)C(=O)c1cccc(OC)c1 [CBK146392] — higher, 113%
- CC(NS(=O)(=O)c1ccc(CCC(=O)N2CCN(C)CC2)cc1)c1ccccc1 (stereo not drawn) [CBK266868] — higher, 91.7%
- Cn1cc(-c2ccc(C3CCCCN3Cc3ccnc4ccccc34)cn2)cn1 (stereo not drawn) [CBK285672] — higher, 93.3%
- CCOc1cccc(-c2cncc(N3CCN(c4ccccn4)CC3)n2)c1 [CBK065985] — higher, 91.5%
- O=C(CSc1nnc(-c2cccnc2)o1)Nc1ccccc1 [CBK287742] — lower, 82.6%
- Cc1ccc(C(=O)O/C(=C/c2nc3ccccc3n2Cc2cccc3ccccc23)c2ccc(C)cc2)cc1 [CBK262485] — higher, 108%
- CC(=O)Nc1cccc(-c2nccnc2NCC2CC2)c1 [CBK037962] — lower, 90.4%
- Cc1onc(-c2ccccc2)c1CNC(=O)[C@@H]1CCCN1C [CBK144077] — lower, 89.8%
- O=S1(=O)CCN(Cc2ccc3c(c2)OCO3)CC1 [CBK074780] — higher, 93.9%
- Cn1cc(C(=O)Nc2ccc3c(c2)CN(Cc2ccccc2)C3)cn1 [CBK281838] — higher, 94.8%
- OCCN1CCN(c2nc(-c3cccnc3)cn3ccnc23)CC1 [CBK037887] — higher, 99.3%
- CCOC(=O)c1ccc(NC(=O)C(C)Sc2nc3ccccc3[nH]2)cc1 (stereo not drawn) [CBK267330] — higher, 91.8%
- CCCc1n[nH]c(O)c1Cc1ccc(OCCCN(C)C)cc1 [CBK116249A] — higher, 93.1%
- CCC(CO)Nc1nccnc1-c1ccoc1 (stereo not drawn) [CBK088756] — higher, 100%
- O=C(NCC1CCCO1)c1ccc(NC(=O)C2C3C=CC(C3)C2C(=O)O)cc1 (stereo not drawn) [CBK266317] — higher, 94.9%
- CN1CCCC(NC(=O)c2cc(-c3cccs3)no2)C1 (stereo not drawn) [CBK282564] — lower, 87.2%
- COc1ccc2nc(N/C(N)=N/C(=O)COc3ccc(Cl)cc3)nc(C)c2c1 [CBK263924] — higher, 95%
- O=S(=O)(NC1CCCCC1Sc1nnc(Nc2ccccc2)s1)c1ccccc1 (stereo not drawn) [CBK266378] — higher, 96.7%
- COc1cc(C(c2c(C)n(C)n(-c3ccccc3)c2=O)c2c(C)n(C)n(-c3ccccc3)c2=O)ccc1O [CBK261690] — higher, 110%
- N#Cc1cccc(S(=O)(=O)Nc2cccc3[nH]ccc23)c1 [CBK155771] — lower, 60.6%
- COc1cc(OC)nc(CN2C(=O)C3(CC(=O)N(C)C3=O)c3cc(F)ccc32)n1 (stereo not drawn) [CBK075475] — higher, 110%
- Cc1cc(=O)c2ccccc2n1CC(=O)N1CCC2(CCO2)CC1 [CBK306809] — lower, 88.5%
- CCn1nc(C)c(C(C)NC(=O)c2c3c(nn2CC)CCCC3)c1C (stereo not drawn) [CBK282077] — lower, 85%
- COCC(=O)N1CCN(C(=O)N2CCOCC2)C[C@@H]1C(=O)OC [CBK289613] — higher, 109%
- Cc1nc2ccccc2n1CC(=O)N(CCC#N)Cc1ccco1 [CBK306323] — lower, 86.1%
- CN1CCC(N(C)Cc2coc3ccccc3c2=O)CC1 [CBK261578] — higher, 103%
- CCN1C(=O)COC[C@@H]1[C@H](O)c1ccc(NC(=O)c2ccc(C#N)cc2)cc1 [CBK289689] — higher, 91.6%
- Nc1c(C(=O)c2ccc3c(c2)OCO3)sc2nc(-c3cccnc3)ccc12 [CBK270186] — lower, 86.3%
- CC(CC(=O)N1CCCC(c2cc3cccnc3[nH]2)C1)n1ccnc1 (stereo not drawn) [CBK285034] — higher, 105%
- CCn1nnnc1NCc1ccc(OCc2ccc(F)cc2Cl)c(OC)c1 [CBK268224] — higher, 112%
- Cc1nc2cc(-c3nccn3C)nn2c(N2CCN(c3ccc4c(c3)OCCO4)CC2)c1C [CBK286186] — lower, 90.4%
- CC(=O)Nc1ccc(CCOc2nccnc2/C=C/c2ccccc2)cc1 [CBK106880] — higher, 94.1%
- Cc1cc2c(cc1S(=O)(=O)NCCc1ccccc1)NC(=O)CO2 [CBK270196] — higher, 102%
- Cc1nc2n(n1)C(C(=O)Nc1ccc(C)c(C)c1)CC(=O)N2 (stereo not drawn) [CBK288223] — higher, 105%
- CC1CCC(N(C)Cc2nc3sc4c(c3c(=O)[nH]2)CCC4)CC1 (stereo not drawn) [CBK305876] — lower, 88.7%
- C=CCNC(=O)Cn1c(-c2ccc(OC)cc2)cc2cccnc21 [CBK285363] — lower, 83.2%
- Cc1ccc(O)c(NC(=O)c2nc3ncccn3n2)c1 [CBK267629] — higher, 99.6%
- c1cncc(CN2CCOC[C@H]2c2nc(-c3cccnc3)c[nH]2)c1 [CBK289323] — lower, 86.3%
- CCn1ncc(CN2C3CCC2CC(O)(c2ccccc2F)C3)c1C (stereo not drawn) [CBK282663] — lower, 85%
- CCC(=O)Nc1nc(-c2ccc(OC)cc2)cs1 [CBK070494] — lower, 85.7%
- CCn1c(C)c(/C=C/c2nc3ccccc3c(=O)n2CCCO)c2ccccc21 [CBK268099] — higher, 95.7%
- O=C(Cc1ccccn1)N1CCC(c2cccc(Cc3ccc(C(F)(F)F)cc3)n2)CC1 [CBK286224] — higher, 101%
- C=Cn1ncc(CN(C)Cc2nc3ccccc3[nH]2)c1C [CBK283170] — higher, 91.6%
- C/C(N)=C(/C#N)C(NC(=O)C1CCCCC1)(C(F)(F)F)C(F)(F)F [CBK267902] — lower, 91.1%
- Cc1sc2ncn(CC(=O)Nc3cccnc3)c(=O)c2c1C [CBK306057] — higher, 92.5%
- CN(CC(=O)N1CCOCC1)S(=O)(=O)c1ccc2ccccc2c1 [CBK266946] — higher, 98.5%
- CC1(C)Cc2nc(N3CCOCC3)ncc2C(NC(=O)NC(C)(C)C)C1 (stereo not drawn) [CBK306978] — higher, 101%
- O=C1CCC(C(=O)Nc2cnc(-c3cccc(C(F)(F)F)c3)c(-c3cccnc3)n2)=NN1 [CBK036950] — lower, 88.3%

Same assay, conditions: human, hela cells, % viability, bulk resorufin, single well

Point of comparison: CCCC(=O)C1(c2ccccc2)CCNCC1 [CBK022936C], viability at 28.5 h, 10 µM 89.3%. Against it:
- CCOC(=O)N1CCC2(CC1)OCc1cc(-c3ccccc3CO)ccc1O2 [CBK060908] — higher, 103%
- O=C1NC(=O)C(=Cc2cc(Br)ccc2OCc2cccc(F)c2)C(=O)N1 [CBK264160] — higher, 104%
